The conditions of data set [1]: cited from earlier work.
The subject of data set [2] is ATCC 29213 (MSSA strain). Briefly: MIC by broth microdilution susceptibility testing. The class given is cell-based. Particulars: Staphylococcus aureus. As for the experimental part: (§1) Susceptibility Testing. […] The strains tested were SA 494 and ATCC 29213.
(§2) Susceptibility testing. […] The treatment groups were compared to their commercial drug counterparts, both individually and in combination. […] SA 494 is the MRSA strain, and ATCC 29213 is the MSSA strain. The results were obtained as follows:
(§3) To test the effect of the presence of one drug that may enhance the MIC of the other in combination, combination MIC studies were performed. […] The results for MIC of liposomal CFZ in 0.5×the MIC of liposomal VAN were as follows:
(§4) However, liposomal VAN+CFZ [L (VAN+CFZ)] performed much better as compared to commercial VAN+CFZ (a mixture of non-liposomal antibiotics) in MRSA 494/MSSA 29213. The L(VAN+CFZ) has more than >2-4 fold improvement of MIC as compared to VAN+CFZ. Lower the MIC, the better is the MRSA killing.
In general terms: Dilution methods test growth across graded concentrations, often in twofold steps.

Data set [3] deals with SA 494 (MRSA strain). Description: MIC by broth microdilution susceptibility testing. In kind it is cell-based. Conditions: Staphylococcus aureus. As to the method:
as §1, §2, §3, §4

Data set [4] has as its system MRSA 494 biofilm. Briefly: Biofilm disruption, pin lid method (Calgary biofilm device). The class given is cell-based, Staphylococcus aureus. Conditions: FIG. 14, FIG. 15. As to the method:
The Minimum Inhibitory […] (MIC) in presence of biofilm was determined using the pin lid method or Calgary biofilm device (Barber et al., Antimicrob Agents Chemother. 58(5):2989-92, 2014; De Oliveira et al., Int J Mol Sci. 17(9), 2016). This method is used for defining the biofilm MIC vs. antibiotic or combination of antibiotics.

Data set [5] deals with ATCC 29213. Briefly: Time-kill analysis in 24 well plates (CLSI). In kind it is cell-based, Staphylococcus aureus. Particulars: tested at 1/2×MIC, 1×MIC, 24 h, FIG. 13B. As to the method: Time kill analysis was performed in 24 well plates according to CLSI guidelines (Patel 2017. M100: Performance Standards for Antimicrobial Susceptibility Testing, 27th Edition .224). Bactericidal activity was defined as >3 log CFU/ml reduction from baseline (initial inoculum). […] Lower the MIC, the better is the MRSA killing.

Where two headings read alike, the source gives them in different places.

Turning to `Cc1nnc(SCC2=C(C(=O)O)N3C(=O)[C@@H](NC(=O)Cn4cnnn4)[C@H]3SC2)s1` [CCFZ, cefazolin], the lipophilicity (log P) in data set [1] is −0.58. For the same compound, the MIC in data set [2] (MSSA 29213, Example 4 table, read-out: MIC values) was 0.5 µg/mL; in data set [2] (strain 29213 (MSSA), broth microdilution, 24 h at 35° C., Example 1, read-out: MC Values (MIC)), 0.5 µg/mL; in data set [3] (MRSA 494, Example 4 table, read-out: MIC values), over 64 µg/mL; in data set [3] (strain 494 (MRSA), broth microdilution, 24 h at 35° C., Example 1, read-out: MC Values (MIC)), over 16 µg/mL.
In the case of `CN[C@H](CC(C)C)C(=O)N[C@H]1C(=O)N[C@@H](CC(N)=O)C(=O)N[C@H]2C(=O)N[C@H]3C(=O)N[C@H](C(=O)N[C@H](C(=O)O)c4cc(O)cc(O)c4-c4cc3ccc4O)[C@H](O)c3ccc(c(Cl)c3)Oc3cc2cc(c3O[C@@H]2O[C@H](CO)[C@@H](O)[C@H](O)[C@H]2O[C@H]2C[C@](C)(N)[C@H](O)[C@H](C)O2)Oc2ccc(cc2Cl)[C@H]1O` [CVAN, vancomycin], the “biofilm disruption (in words)” value in data set [4] was “barely showed any anti-biofilm effect”. Moreover, the minimal inhibitory concentration (MIC) in data set [2] (24 h, read-out: MC Values (MIC)) was 0.5 µg/mL; in data set [2] (read-out: MIC values), 0.5 µg/mL; in data set [3] (MRSA, 24 h, read-out: MC Values (MIC)), 1 µg/mL; in data set [3] (MRSA, read-out: MIC values), 1 µg/mL. Further, the time-kill result in data set [5] is “grow above the initial inoculum at 24 h”.

As a reminder, the log P is a log measure of how a compound divides between an organic and an aqueous phase. By MIC is commonly meant the least concentration at which growth counts as inhibited.

The values are drawn from patent US12551527B2, “Drug delivery systems for treatment of infections” (Wayne State University, priority 2017, dated 2026).
